# Laboratory results from the supplement of paper PMC10307832.
# How the values were obtained:
# Assay in all cases: relative viability (nuclei count vs DMSO), 5 days (fraction); higher = more cells survive
# Idelalisib + Phenformin = compound: CC[C@H](Nc1ncnc2[nH]cnc12)c1nc2cccc(F)c2c(=O)n1-c1ccccc1 [Idelalisib] + N=C(N)NC(=N)NCCc1ccccc1 [Phenformin] (partner 250 µM)
# In short: (§1)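 Lung cancer cell lines in 1536-well plates were dosed by pin tool the day after seeding, either with one drug alone or with a fixed anchor-drug dose plus five library-drug doses (not always all listed) in √10 steps. After 5 days, cells were fixed and their nuclei stained in one step (final 0.05% Triton X-100, 1% formaldehyde, 1 ug/ml Hoechst), then counted on 4× images. Relative viability is the nuclei count in treated wells divided by that in vehicle wells. Values are medians of duplicate plates.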
# Idelalisib + Tozasertib = compound: CC[C@H](Nc1ncnc2[nH]cnc12)c1nc2cccc(F)c2c(=O)n1-c1ccccc1 [Idelalisib] + Cc1cc(Nc2cc(N3CCN(C)CC3)nc(Sc3ccc(NC(=O)C4CC4)cc3)n2)n[nH]1 [Tozasertib] (partner 0.1 µM)
# In short: as §1
# Pemetrexed + Bortezomib = compound: Nc1nc2[nH]cc(CCc3ccc(C(=O)N[C@@H](CCC(=O)O)C(=O)O)cc3)c2c(=O)[nH]1 [Pemetrexed] + CC(C)C[C@H](NC(=O)[C@H](Cc1ccccc1)NC(=O)c1cnccn1)B(O)O [Bortezomib] (partner 0.002 µM)
# In short: as §1
# Idelalisib + Navitoclax = compound: CC[C@H](Nc1ncnc2[nH]cnc12)c1nc2cccc(F)c2c(=O)n1-c1ccccc1 [Idelalisib] + CC1(C)CCC(c2ccc(Cl)cc2)=C(CN2CCN(c3ccc(C(=O)NS(=O)(=O)c4ccc(N[C@H](CCN5CCOCC5)CSc5ccccc5)c(S(=O)(=O)C(F)(F)F)c4)cc3)CC2)C1 [Navitoclax] (partner 0.5 µM)
# In short: as §1
Cell Line,relative viability (Idelalisib + Phenformin; first compound 0.04 µM),relative viability (Idelalisib + Phenformin; first compound 0.1265 µM),relative viability (Idelalisib + Phenformin; first compound 0.4 µM),relative viability (Idelalisib + Phenformin; first compound 1.265 µM),relative viability (Idelalisib + Phenformin; first compound 4 µM),relative viability (Idelalisib + Tozasertib; first compound 0.04 µM),relative viability (Idelalisib + Tozasertib; first compound 0.1265 µM),relative viability (Idelalisib + Tozasertib; first compound 0.4 µM),relative viability (Idelalisib + Tozasertib; first compound 1.265 µM),relative viability (Idelalisib + Tozasertib; first compound 4 µM),relative viability (Pemetrexed + Bortezomib; first compound 0.002 µM),relative viability (Pemetrexed + Bortezomib; first compound 0.006325 µM),relative viability (Pemetrexed + Bortezomib; first compound 0.02 µM),relative viability (Pemetrexed + Bortezomib; first compound 0.06325 µM),relative viability (Pemetrexed + Bortezomib; first compound 0.2 µM),relative viability (Idelalisib + Navitoclax; first compound 0.04 µM),relative viability (Idelalisib + Navitoclax; first compound 0.1265 µM),relative viability (Idelalisib + Navitoclax; first compound 0.4 µM),relative viability (Idelalisib + Navitoclax; first compound 1.265 µM),relative viability (Idelalisib + Navitoclax; first compound 4 µM)
HOP-62,0.558,0.656,0.589,0.672,0.654,0.415,0.408,0.392,0.436,0.326,0.741,0.862,0.617,0.722,0.668,1.01,1.03,1.01,1.29,1.03
LC-2-ad,0.602,0.592,0.462,0.626,0.546,0.44,0.455,0.374,0.397,0.457,0.981,1.01,1.02,0.215,0.148,0.479,0.4,0.395,0.417,0.306
LCLC-97TM1,0.43,0.434,0.267,0.592,0.453,0.299,0.172,0.201,0.207,0.207,0.523,1.08,0.679,0.32,0.131,0.468,0.453,–,0.335,0.337
LOU-NH91,0.712,0.725,0.573,0.492,0.643,0.749,0.641,0.651,0.557,0.708,0.515,0.558,0.52,0.467,0.472,0.741,0.699,0.667,0.463,0.617
LU99A,1.06,0.836,0.737,0.988,1.01,0.271,0.292,0.278,0.306,0.318,1.05,1.09,1.17,0.952,0.948,0.835,0.894,0.719,0.91,0.827
LXF-289,0.506,0.518,0.46,0.534,0.496,0.259,0.189,0.195,0.14,0.235,0.987,0.993,1.08,0.976,0.943,0.961,0.948,0.912,1.02,0.97
NCI-H23,0.713,0.845,0.792,–,0.776,0.39,0.528,0.363,–,0.334,0.865,0.924,1.02,1.06,0.725,0.843,0.872,0.718,0.765,0.606
NCI-H322M,0.901,0.846,0.66,0.741,0.735,0.516,0.532,0.466,0.44,0.453,1.32,1.06,1.22,1.29,1.19,1.2,1.2,1.09,1.25,1.04
NCI-H441,0.803,0.919,0.639,0.885,0.898,0.725,0.685,0.728,0.536,0.591,0.572,0.602,0.914,0.825,0.389,0.556,0.67,–,0.467,0.574
NCI-H460,0.643,0.516,0.438,0.503,0.515,0.626,0.397,0.436,0.447,0.255,1.06,1,1.16,0.177,0.0656,1.12,1.07,1.09,1.24,1.14
NCI-H520,0.513,0.585,0.466,0.451,0.397,0.468,0.4,0.406,0.405,0.405,0.29,0.64,0.542,0.526,0.395,0.981,0.944,0.983,1.24,0.798
NCI-H596,0.75,0.765,0.689,0.731,0.616,0.818,1.01,0.73,0.855,0.815,1.22,0.869,1.14,0.851,0.71,1.18,0.931,0.881,0.973,0.892
NCI-H647,0.673,0.498,–,0.38,0.299,0.313,0.394,–,0.0094,0.109,–,1.07,1.35,0.703,0.295,1.17,1.1,0.981,0.837,0.745
NCI-H727,0.582,0.56,–,0.607,0.448,0.669,0.533,0.713,0.652,0.559,0.807,0.892,0.74,0.897,0.742,0.454,0.57,0.416,0.548,0.354
NCI-H838,0.61,0.668,0.405,0.607,0.405,0.268,0.288,0.282,0.258,0.257,0.895,0.708,1.07,0.63,0.208,1,1.14,1.07,1.05,0.977
NCI-H1355,0.476,0.502,0.364,0.448,0.411,0.534,0.611,0.442,0.488,0.386,0.952,1.33,1.21,1.21,1.15,0.982,0.947,0.701,0.774,0.667

Cell Line,relative viability (Idelalisib + Phenformin; first compound 0.04 µM),relative viability (Idelalisib + Phenformin; first compound 0.1265 µM),relative viability (Idelalisib + Phenformin; first compound 0.4 µM),relative viability (Idelalisib + Phenformin; first compound 1.265 µM),relative viability (Idelalisib + Phenformin; first compound 4 µM),relative viability (Idelalisib + Tozasertib; first compound 0.04 µM),relative viability (Idelalisib + Tozasertib; first compound 0.1265 µM),relative viability (Idelalisib + Tozasertib; first compound 0.4 µM),relative viability (Idelalisib + Tozasertib; first compound 1.265 µM),relative viability (Idelalisib + Tozasertib; first compound 4 µM),relative viability (Pemetrexed + Bortezomib; first compound 0.002 µM),relative viability (Pemetrexed + Bortezomib; first compound 0.006325 µM),relative viability (Pemetrexed + Bortezomib; first compound 0.02 µM),relative viability (Pemetrexed + Bortezomib; first compound 0.06325 µM),relative viability (Pemetrexed + Bortezomib; first compound 0.2 µM),relative viability (Idelalisib + Navitoclax; first compound 0.04 µM),relative viability (Idelalisib + Navitoclax; first compound 0.1265 µM),relative viability (Idelalisib + Navitoclax; first compound 0.4 µM),relative viability (Idelalisib + Navitoclax; first compound 1.265 µM),relative viability (Idelalisib + Navitoclax; first compound 4 µM)
NCI-H1437,0.309,0.306,0.297,0.361,0.247,0.333,0.43,0.411,0.384,0.397,0.31,0.478,0.514,0.313,0.26,0.956,1.13,1.08,1.17,1.11
NCI-H1650,0.439,0.341,0.35,0.371,0.379,0.312,0.405,0.36,0.33,0.304,0.208,0.208,0.204,0.22,0.2,1.15,1.39,1.08,1.15,0.748
NCI-H1651,0.35,0.372,0.258,0.322,0.321,0.673,0.623,0.615,0.593,0.605,0.992,0.919,0.945,0.892,0.911,0.73,1.09,1.01,1.07,0.792
NCI-H1666,0.618,0.57,0.539,0.583,0.546,0.662,0.594,0.78,0.639,0.57,0.682,0.752,0.875,0.766,0.421,0.892,0.928,0.835,0.804,0.69
NCI-H1734,0.455,0.446,0.344,0.377,0.377,0.264,0.246,0.253,0.254,0.246,0.911,1.01,0.929,0.944,0.705,0.746,0.841,0.654,0.724,0.584
NCI-H1755,0.633,0.601,0.558,0.675,0.531,0.541,0.616,0.483,0.488,0.489,0.819,0.952,1.04,1.01,0.867,0.964,0.959,0.923,0.836,0.687
NCI-H1915,0.387,0.36,0.364,0.381,0.372,0.55,0.406,0.374,0.407,0.402,0.937,1.02,1.04,0.965,0.943,0.797,0.772,0.812,0.78,0.764
NCI-H1975,0.426,0.418,0.369,0.408,0.357,0.7,0.794,0.671,0.718,0.565,–,0.427,0.386,0.309,0.213,1.1,1.08,1.12,1.06,0.692
NCI-H1993,0.57,0.484,0.554,0.59,0.486,0.628,0.54,0.519,0.583,0.574,1.04,1.08,1.22,0.99,0.695,0.844,0.971,0.762,0.912,0.75
NCI-H2009,0.496,0.483,0.474,0.536,0.491,0.736,0.852,0.667,0.756,0.567,0.911,0.954,1.15,0.974,1,1.11,1.17,1.19,1.22,1.18
NCI-H2023,0.407,0.391,0.363,0.361,0.351,0.355,0.284,0.363,0.321,0.253,0.519,0.912,1.04,0.815,0.304,1.05,1.02,0.994,0.945,0.939
NCI-H2085,0.788,0.833,0.558,0.735,0.471,0.915,0.779,0.8,0.641,0.692,1.01,1.19,1.04,1.09,1.05,1.23,1.16,0.951,0.938,0.764
NCI-H2087,0.515,0.494,0.36,0.5,0.326,0.249,0.272,0.212,0.216,0.235,0.834,0.639,0.919,1.04,0.523,0.885,0.938,0.98,1.03,0.823
NCI-H2126,0.575,0.57,0.441,0.528,0.527,0.838,0.905,0.765,0.813,0.626,1.04,1.14,1.19,1.06,1.06,0.896,0.861,0.813,0.805,0.789
NCI-H2228,0.348,0.371,0.162,0.221,0.235,0.292,0.216,0.223,0.271,0.239,0.934,0.918,1.07,0.754,0.339,1.04,0.569,0.742,1.03,0.666
NCI-H2347,0.395,0.386,0.372,0.284,0.313,0.591,0.517,0.408,0.443,0.441,0.678,1.26,1.07,0.903,0.599,0.89,0.667,0.737,0.767,0.618
